In data set [1] the test system is HCT-116 cells. The experiment in a line: MTT cell viability, sensitivity to GCV killing, HCT-116 cell lines expressing HSV-1 TKs. It is filed as cell-based, human. Conditions: HCT-116, GCV 0-5 μM, 4 days, FIG. 3B. As to the method: Cells were plated in triplicate and exposed to 0, 0.05, 0.5 or 5 μM GCV for four days. Cell viabilities were determined using MTT dye. […] FIG. 3A: NIH3T3 cell lines, FIG. 3B: HCT-116 cell lines; parental cells (noTK, dark bands); Asp125TK (Asp-#, brick band); Glu-125TK (Glu-#, cross-hatch bands); Asn-125TK (Asn-#, gray bands); wild-type HSV-1 TK (WT-#, striped bands).
A Moloney murine leukemia virus derived plasmid for the expression of HSV-TK, termed pLENTK, has been previously constructed (24). A unique BspEI-MluI restriction fragment within the HSV-TK sequence of pLENTK contains the Gln-125 mutation site. This fragment was removed from wild-type plasmid and replaced with the analogous fragments encoding each mutant. […] Along with wild-type HSV-1 TK plasmid, each mutant-TK plasmid was transfected individually into the murine fibroblast cell line, NIH 3T3, and the human colon tumor cell line, HCT-116, using lipofectin reagent (GIBCO/BRL) (2 μg plasmid, 14 μl lipid per 1×10^6 cells). Cells were maintained in RPMI 1640 media and selected with G418 (200 μg/ml for 2 weeks) as previously described (24). At least eight individual G418 resistant cell clones were picked and grown up for further characterization. Each clone was screened initially for growth inhibition by 25 μM GCV. Those clones that were sensitive were further analyzed for HSV-TK protein expression by Western blot analysis with a polyclonal, rabbit anti-HSV-TK antibody (a gift from Dr. Margaret Black). For each clone, cell numbers were normalized to 1×10^6, and equal protein loading was confirmed for each sample by gel staining. Blotted HSV-1 TK protein bands were visualized on film using ECL chromophore reagents (Amersham). For analysis of GCV sensitivity of different clones, NIH3T3 and HCT-116 cell sets were seeded in 96 well plates in 0.1 ml media (15,000 cells/well). The next day, a dose range of GCV (0.005 to 5 mM, n=3) was added in 0.1 ml media. After 4 days, MTT ([…]) was added for 1.5 hours, followed by DMSO solubilization of the cells and absorbance reading at 540 nm (25).
cDNA for each mutant was incorporated into a Moloney murine leukemia virus plasmid (24). The plasmids for wild-type HSV-1 TK and each mutant were individually transfected into either NIH3T3 cells or the human colon tumor cell line, HCT-116. Following drug selection in G418, individual cell clones were evaluated for sensitivity to GCV and relative levels of HSV-1 TK expression. Using an HSV-1 TK antibody and extracts normalized by protein and cell number, the relative expression levels of HSV-1 TK in each cell clone were determined.

Data set [2] deals with T1, HSV-1 TK (Human herpesvirus 1, UniProt P0DTH5, Q125N).
T1 construct: glutathione-S-transferase (GST)
T1 sequence (P0DTH5 1-376 Q125N): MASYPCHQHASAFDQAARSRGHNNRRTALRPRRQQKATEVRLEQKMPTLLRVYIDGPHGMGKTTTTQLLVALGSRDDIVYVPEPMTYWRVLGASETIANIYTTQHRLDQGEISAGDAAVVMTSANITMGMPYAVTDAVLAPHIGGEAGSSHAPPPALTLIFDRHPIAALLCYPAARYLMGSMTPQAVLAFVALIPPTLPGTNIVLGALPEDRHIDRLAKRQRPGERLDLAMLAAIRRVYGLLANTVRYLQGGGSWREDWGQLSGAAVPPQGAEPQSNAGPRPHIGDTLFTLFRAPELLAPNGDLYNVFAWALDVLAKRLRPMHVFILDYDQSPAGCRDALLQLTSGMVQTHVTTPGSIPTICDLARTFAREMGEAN
Conditions: previous study (17); cited from earlier work.

The subject of data set [3] is Caspase 3. The experiment in a line: Caspase 3 colorimetric assay. It is filed as cell-based, human. Conditions: 25 μM GCV, FIG. 8.
Description: Parental HCT-116, wild-type HSV-1TK, Asn-125TK and Glu-125TK-expressing HCT-116 cells were treated with 0 (black bars) or 25 μM GCV (gray bars) for 4 days. Cell lysates were prepared and caspase 3 assays performed using a colorimetric ApoAlert CPP32/Caspase-3 kit as per manufacturers instructions (Clontech). Relative caspase 3 activity was determined by O.D. 405 nm readings of the cleaved DEVD-pNA substrate and presented as DVEDase activity.
Caspase 3-like activity was determined in parental HCT-116 and each HSV-1 TK expressing cell line treated for 50 hrs plus or minus 25 μM GCV using an Apo-Alert CPP32/Caspase 3 Colorimetric Assay kit with the peptide substrate, DEVD-pNA, as per manufacturers instructions (Clontech Laboratories, INC.). GCV-treated and untreated cells were grown in 25 cm^2 flasks, and cell numbers were determined using a hemocytometer prior to analysis. Assays were done in triplicate with protein extracts derived from 2×10^6 cells. The amount of Caspase 3-like activities were quantitated using a Shimadzu UV/VIS spectophotometer set at 405 nm.
Caspase 3 activity was determined in different cell extracts derived from GCV-treated and control cells using a calorimetric assay with the peptide substrate DVED (SEQ ID No. 4).
For data set [4], the target named is T2, HSV-1 TK (Human herpesvirus 1, UniProt P0DTH5, Q125E).
T2 construct: glutathione-S-transferase (GST)
T2 sequence (P0DTH5 1-376 Q125E): T1 sequence (P0DTH5 1-376 Q125N) with N125E
Conditions: previous study (17); cited from earlier work.

Where a chain is given by its changes, count along the chain named.

Asn-125: the “Dose dependent cell killing by GCV (cell viability, MTT)” value (from here on “Dose dependent cell killing by GCV”) in data set [1] was “as effective as wild-type HSV-1 TK”. Moreover, in data set [1] (listed as Asn-125TK), the “Dose dependent cell killing by GCV” value is recorded as “proportionally more cell killing”. In data set [2], the “Increase in the Km of ACV” value was 3 fold and the “Increase in the Km of thymidine” value was 50 fold.

As to “Gln-125 (WT): wild-type herpes simplex virus type 1 thymidine kinase with glutamine at position 125, parent enzyme [reference compound]”, the “Dose dependent cell killing by GCV” value was “as effective as wild-type HSV-1 TK” in data set [1] (listed as Gln-125) and “proportionally more cell killing” in data set [1] (listed as wild-type).

Consider Glu-125, for which the “DVED-ase activity of GCV-treated cells relative to GCV-treated wild-type or Asn-125 HSV-1TK-expressing cells” value in data set [3] is recorded as “three times lower”. For the same substance, the “Dose dependent cell killing by GCV” value in data set [1] (listed as Glu-125 HSV-1 TK) is on record as “just as sensitive to GCV killing”; in data set [1] (listed as Glu-125TK) it was “cell viabilities dropped precipitously”. The “Thymidine and ACV phosphorylation activities” value in data set [4] is listed as “no detectable activities”.

These data come from patent publication US6610289B2, “Mutated herpes simplex virus type 1 thymidine kinases and uses thereof” (The Board of Trustees of the University of Arkansas, priority 1998, dated 2003).
